Assay results: patent US7030102B1, “Highly bioavailable coenzyme Q-10 cyclodextrin complex” (BioActives, LLC, priority 2003, dated 2006)

What was measured:
Caco2 cells = assay: In vitro uptake of CoQ-10 in Caco2 cells; assay type: in vitro ADME, human; settings: 100 μg CoQ-10/flask, sum of reduced and oxidized forms, control = endogenous level
Description: The cellular uptake of the CoQ-10 from the cyclodextrin complexes was determined in vitro in model cell culture systems. For example, the uptake was determined using an in vitro Caco2 intestinal cell culture model indicative of in vivo intestinal absorption. This cell line has been used as a model system to examine the selective characteristics of intestinal absorption of compounds, such as vitamin E (Traber et al., 1990), retinol, beta lactoglobulin, palmitic acid (Puyol et al., 1995), carotenoids (Garrett et al., 1999), and polyamines (Turchanowa et al., 2001). […] CoQ-10 incorporated into mixed micelles was used for comparison.
The uptake of CoQ-10 from the cyclodextrin complex dried by different methods was compared to commercially available CoQ-10 powder (99% pure, used in hard capsules) and CoQ-10 powder incorporated into mixed micelles, simulating the digestive process.
The mixed micelles were prepared by the method of Garrett et al. (1999) using sodium taurocholate (bile salt), mono-acylglycerol, oleic acid, phosphatidyl choline, lysophosphatidylcholine, and CoQ-10 in phosphate buffered saline (PBS). The CoQ-10/cyclodextrin complexes were dispersed in PBS. The stock solutions contained 30 mg CoQ-10/10 ml.
The cellular uptake of CoQ-10 as a function of media concentration and exposure time was determined based on the method of Garrett et al. (1999). Caco-2 (ATCC, Rockville, Md.) cells were maintained in high glucose DMEM with 15 mM HEPES and 10% heat inactivated fetal bovine serum, nonessential amino acids, glutamine, and pyruvate in a humidified atmosphere at 5% CO2 and 37° C. The cells were allowed to reach confluency (5–6 days after subculture) and differentiate (14 days) in 25 cm^2 flasks before the start of the experiment.
The stock test samples were diluted in the culture medium for the experiment. The monolayers were washed with PBS before adding the test samples at known CoQ-10 concentration (100 μg/flask). […] The cultures were incubated as before and the CoQ-10 uptake was terminated at indicated times. […] The chromatograms were monitored at 275 nm.

[1] = system: Caco2 intestinal cell model; settings: Totterman et al. 1997, Ono et al. 2001; cited from earlier work

Cellular Total CoQ-10 (Treated/Control) (Caco2 cells; 5 hr incubation)	Cellular Total CoQ-10 (Treated/Control) (Caco2 cells; 10 hr incubation)	Cellular Total CoQ-10 (Treated/Control) (Caco2 cells; 24 hr incubation)	Compound	Cytotoxicity / effect on Caco2 cells [1]
1.0	1.0	1.0	COC1=C(OC)C(=O)C(C/C=C(\C)CC/C=C(\C)CC/C=C(\C)CC/C=C(\C)CC/C=C(\C)CC/C=C(\C)CC/C=C(\C)CC/C=C(\C)CC/C=C(\C)CCC=C(C)C)=C(C)C1=O [CoQ-10 Powder, Coenzyme Q-10]	–
–	–	–	OC[C@H]1O[C@@H]2O[C@H]3[C@H](O)[C@@H](O)[C@@H](O[C@H]4[C@H](O)[C@@H](O)[C@@H](O[C@H]5[C@H](O)[C@@H](O)[C@@H](O[C@H]6[C@H](O)[C@@H](O)[C@@H](O[C@H]7[C@H](O)[C@@H](O)[C@@H](O[C@H]8[C@H](O)[C@@H](O)[C@@H](O[C@H]9[C@H](O)[C@@H](O)[C@@H](O[C@H]1[C@H](O)[C@H]2O)O[C@@H]9CO)O[C@@H]8CO)O[C@@H]7CO)O[C@@H]6CO)O[C@@H]5CO)O[C@@H]4CO)O[C@@H]3CO [γ-Cyclodextrin]	least effect even at a relatively high concentration of 150 mM
–	–	–	dimethyl β-cyclodextrin	dose dependent cytotoxicity
–	–	–	maltosyl-α-cyclodextrin	less toxic as compared to α-cyclodextrin
